Assay results reported in PubChem BioAssay (NCI).
Where “and” joins values, the source holds several entries; their conditions need not be identical. Equal entries are not always repeated.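 The compound was tested at five concentrations on cells cultured in 96-well plates, with a 48-hour exposure period. GI50: concentration for 50% inhibition of growth. TGI marks complete inhibition of growth.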

Columns and labels:
Test in all cases: growth of human tumour cells (NCI), 48 h
[1] = tested on: KM12 colon
[2] = tested on: SK-OV-3 ovarian
[3] = tested on: HL-60(TB) leukemia
[4] = tested on: BT-549 breast
[5] = tested on: SNB-19 CNS
[6] = tested on: HCT-116 colon
[7] = tested on: NCI/ADR-RES ovarian
[8] = tested on: OVCAR-5 ovarian
[9] = tested on: UO-31 renal
[10] = tested on: OVCAR-3 ovarian

| SMILES | GI50 [1] | GI50 [2] | GI50 [3] | TGI [3] | GI50 [4] | TGI [4] | GI50 [5] | TGI [5] | GI50 [6] | TGI [6] | GI50 [7] | TGI [7] | GI50 [8] | GI50 [9] | TGI [9] | GI50 [10] | TGI [10] | TGI [1] | TGI [2] | TGI [8] |
| --- | --- | --- | --- | --- | --- | --- | --- | --- | --- | --- | --- | --- | --- | --- | --- | --- | --- | --- | --- | --- |
| C[C@H]1CCC/C=C/[C@@H]2C[C@H](O)C[C@H]2[C@H](O)[C@H](S(=O)c2ccc(O)cc2)CC(=O)O1 (some centres not stated) | < 0.0146 µM | < 0.0205 µM | 0.0338 µM | 0.139 µM | 0.0472 µM | > 100 µM | 0.187 µM | > 100 µM | 0.0256 µM | 0.0633 µM | 0.0174 µM | 0.0758 µM | 0.0613 µM | 0.0205 µM | 0.519 µM | 0.021 µM | 1.02 µM |  |  |  |
| O=S(=O)(NCCNc1cc(-c2cn(-c3ccccc3)nc2-c2cccc(O)c2)ccn1)c1ccc(C(F)(F)F)cc1 | 2.62 µM | 3.79 µM | 2.17 µM | 4.77 µM | 2.02 µM | 7.07 µM | 3.79 µM | 17.4 µM | 2.29 µM | 7.94 µM | 3.21 µM | 16.6 µM | 2.53 µM | 1.81 µM | 4.28 µM | 2.2 µM | 5.58 µM | 7.98 µM | 16.2 µM | 13.7 µM |
| COc1cc2c(c(OC)c1OC)-c1ccc([O-])c(=O)cc1[C@@H](NC(C)=O)CC2.COc1cc2c(c(OC)c1OC)-c1ccc([O-])c(=O)cc1[C@@H](NC(C)=O)CC2.[Cu+2] | 1.87 µM | 2.95 µM | 2.05 µM | 4.82 µM | 2.56 µM | > 100 µM | 14.7 µM | > 100 µM | 3.2 µM | > 100 µM | 6.16 µM | 51.8 µM | 14.8 µM | 4.1 µM | 41.9 µM | 2.16 µM | 5.19 µM | 5.52 µM | > 100 µM | > 100 µM |
| CCCCCCCC1c2cc3[nH]c(cc4nc(cc5[nH]c(cc(n2)[C@@]1(C)CC(=O)N(C)C)c(C)c5CCC(=O)O)C(CCC(=O)O)=C4C)cc3C (some centres not stated) |  |  |  | 45.8 µM |  | 28.6 µM |  | 36.9 µM |  | 32.5 µM |  | 43.1 µM |  |  | 32.5 µM |  | 37.1 µM | 58.5 µM | > 100 µM | 55.5 µM |
| CN1CCN(C(=O)c2ccc(NC(=O)Nc3ccc(N(C)c4ccnc(Nc5ccc(CS(C)(=O)=O)cc5)n4)cc3)cc2)CC1 | 7.33 µM | > 25 µM | > 19.4 µM | > 25 µM | 9.05 µM | > 25 µM | 12.7 µM | > 25 µM | 10.1 µM | > 25 µM | > 25 µM | > 25 µM | > 25 µM | > 25 µM | > 25 µM | 7.44 µM | > 19.4 µM | > 25 µM | > 25 µM | > 25 µM |
| CNC(=O)c1ccc(Nc2ncc(C(F)(F)F)c(NCc3nccnc3N(C)S(C)(=O)=O)n2)cc1 | 0.383 µM and 0.309 µM and 0.307 µM | 3.16 µM and 2.27 µM and 2.41 µM | 2.02 µM and 2.19 µM and 2.49 µM | 8.1 µM and 6.09 µM and 7.7 µM | 2.98 µM and 2.06 µM and 2.14 µM | > 10 µM and 7.41 µM and 9.73 µM | 3.21 µM and 3.17 µM and 3.31 µM | > 10 µM and 13.3 µM and 14.7 µM | 2.08 µM and 2.4 µM and 1.71 µM | > 10 µM and 10.5 µM and 15.1 µM | 8.27 µM and 8.53 µM | > 10 µM and 25.9 µM and 27.1 µM | 2.18 µM and 1.98 µM and 1.93 µM | 1.03 µM and 1.94 µM and 2.14 µM | 5.12 µM and 6.97 µM and 8.22 µM | 3.16 µM and 2.26 µM and 2.71 µM | > 10 µM and 8.43 µM and 12.8 µM | > 10 µM and 6.33 µM and 11.3 µM | > 10 µM and 9.35 µM and 11.4 µM | > 10 µM and 9.03 µM and 9.56 µM |
| CCC1CCc2nc3sc(C(=O)Nc4ccccc4F)c(N)c3cc2C1 (configuration not stated) | 0.643 µM | > 100 µM | 0.302 µM | 0.978 µM | > 100 µM | > 100 µM | 53.8 µM | > 100 µM | 1.36 µM | > 100 µM | 9.5 µM | > 100 µM | 22.8 µM | > 100 µM | > 100 µM | 0.454 µM | 8.98 µM | > 100 µM | > 100 µM | > 100 µM |
| O=C(OC(C(=O)O)C(OC(=O)c1ccccc1)C(=O)O)c1ccccc1 (configuration not stated) (tested in a mixture with another compound) |  |  |  | > 37.8 µM |  | 27 µM |  | > 100 µM |  | 55 µM |  | > 100 µM |  |  | > 100 µM |  | > 69.1 µM | > 100 µM | > 100 µM | > 100 µM |
| Cc1cc(N(CCOS(C)(=O)=O)CCOS(C)(=O)=O)ccc1C=Nc1ccc(-c2csc(-c3ccccc3)n2)c(Cl)c1 |  |  |  | 19.8 µM |  | 73.6 µM |  | > 61.1 µM |  | 40.5 µM |  | 71.5 µM |  |  | 29.7 µM |  | 40.9 µM | 27.2 µM | 31.6 µM | 55 µM |
| COc1ccc(C(=O)/C=C/c2cc3ccccc3[nH]c2=O)cc1 | 16.5 µM | 22.7 µM | 21.9 µM | > 100 µM | 20.2 µM | > 42.9 µM | 23.2 µM | > 57.5 µM | 14.7 µM | 24.8 µM | 18.9 µM | 42.9 µM | 21.9 µM | > 100 µM | > 100 µM | 17.9 µM | 36.4 µM | 28.7 µM | > 91.6 µM | > 56.8 µM |
| C/C(=C\c1ccn(-c2ccc(N)c(C(F)(F)F)c2)n1)[C@@H]1C[C@@H]2O[C@]2(C)CCC[C@H](C)[C@H](O)[C@@H](C)C(=O)C(C)(C)[C@@H](O)CC(=O)O1 | 0.00869 µM | 0.103 µM | 0.0086 µM | 0.203 µM | 0.0221 µM | 31.5 µM | 0.0287 µM | > 32.5 µM | 0.00733 µM | > 29.3 µM | 0.0624 µM | 8.31 µM | 0.025 µM | 0.055 µM | > 32.5 µM | 0.00997 µM | 1.46 µM | > 32.5 µM | > 27.9 µM | > 26.1 µM |
| Nc1ncc(-c2cnn(C3CCNCC3)c2)cc1-c1nc2ccccc2o1 | 0.0812 µM | 1.11 µM | 0.472 µM | 1.66 µM | 2.44 µM | 10.2 µM | 3.25 µM | 10.6 µM | 0.616 µM | 2.03 µM | 3.47 µM | 13.4 µM | 3.28 µM | 0.714 µM | 2.35 µM | 1.53 µM | 3.52 µM | 1.45 µM | 5.78 µM | 11.5 µM |
| COc1ccc(C(=S)c2cc(OC)c(OC)c(OC)c2)cc1OC(=O)CCl | < 0.01 µM | 0.0684 µM | < 0.0129 µM | < 0.0218 µM | < 0.0175 µM | 0.922 µM | < 0.0207 µM | > 100 µM | < 0.0174 µM | > 100 µM | < 0.0127 µM | > 100 µM | 3.32 µM | 0.144 µM | > 95.7 µM | 0.0227 µM | 0.0813 µM | > 100 µM | > 100 µM | > 100 µM |
